From PubChem BioAssay AID248 (DTP/NCI, 2004)
Values joined by “and” are separate entries in the source; they are usually repeats but may differ in a detail not shown here. Equal entries are not always repeated. Inconclusive results and toxic doses are left out. Cut-off read from the data, not from the text of the source: active = T/C of 150% or more; inactive = T/C below 125%.

System: L1210 leukemia ip in BDF1 mice, survival T/C
Assay: NCI In Vivo Anticancer Drug Screen. Data for tumor model L1210 Leukemia (intraperitoneal) in B6D2F1 (BDF1) mice
Conditions: endpoint: mean survival time, higher = longer survival
Outline: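 Antitumor effect is assessed in tumor-bearing animals. Survival in the compound arm is compared with a vehicle-dosed control arm and expressed as their quotient.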

[1] = dose: 100.0 mg/kg/injection, schedule: Q01DX001 (ip), vehicle: saline
[2] = dose: 200.0 mg/kg/injection, schedule: Q01DX001 (ip), vehicle: saline
[3] = dose: 400.0 mg/kg/injection, schedule: Q01DX001 (ip), vehicle: saline
[4] = dose: 100.0 mg/kg/injection, schedule: Q04DX003 (ip), vehicle: saline
[5] = dose: 200.0 mg/kg/injection, schedule: Q04DX003 (ip), vehicle: saline
[6] = dose: 100.0 mg/kg/injection, schedule: Q01DX009 (ip), vehicle: saline with Tween-80
[7] = dose: 200.0 mg/kg/injection, schedule: Q01DX009 (ip), vehicle: saline with Tween-80
[8] = dose: 400.0 mg/kg/injection, schedule: Q01DX009 (ip), vehicle: saline with Tween-80
[9] = dose: 100.0 mg/kg/injection, schedule: Q04DX002 (ip), vehicle: Klucel (hydroxypropylcellulose) (HPC)
[10] = dose: 200.0 mg/kg/injection, schedule: Q04DX002 (ip), vehicle: Klucel (hydroxypropylcellulose) (HPC)
[11] = dose: 400.0 mg/kg/injection, schedule: Q04DX002 (ip), vehicle: Klucel (hydroxypropylcellulose) (HPC)
[12] = dose: 100.0 mg/kg/injection, schedule: Q04DX002 (ip), vehicle: saline
[13] = dose: 200.0 mg/kg/injection, schedule: Q04DX002 (ip), vehicle: saline
[14] = dose: 400.0 mg/kg/injection, schedule: Q04DX002 (ip), vehicle: saline
[15] = dose: 100.0 mg/kg/injection, schedule: Q04DX003 (ip), vehicle: saline with Tween-80
[16] = dose: 200.0 mg/kg/injection, schedule: Q04DX003 (ip), vehicle: saline with Tween-80
[17] = dose: 400.0 mg/kg/injection, schedule: Q04DX003 (ip), vehicle: saline with Tween-80

Measured: T/C

OC1C2CCN(CC2)C1CN1CCOCC1 (configuration not stated)
inactive: [1] 107 % of control | dose: 100.0 mg/kg/injection, schedule: Q01DX009 (ip), vehicle: saline 94 % of control | [2] 108 % of control | dose: 200.0 mg/kg/injection, schedule: Q01DX009 (ip), vehicle: saline 91 % of control | [3] 97 % of control | dose: 400.0 mg/kg/injection, schedule: Q01DX009 (ip), vehicle: saline 91 % of control

CCOC(OC(C)=O)OC(C)=O
inactive: [4] 87 % of control | [5] 101 % of control | dose: 400.0 mg/kg/injection, schedule: Q04DX003 (ip), vehicle: saline 97 % of control

O=S(=O)(NCCNS(=O)(=O)c1ccccc1)c1ccccc1
inactive: [6] 96 % of control | [7] 94 % of control | [8] 95 % of control

O=C(O)C1CCCN1 (configuration not stated)
inactive: [1] 100 % of control | [2] 87 % of control | [3] 97 % of control

CC1C[N-]CC(C)C1.CC1C[N-]CC(C)C1.CC1C[N-]CC(C)C1.CC1C[N-]CC(C)C1.[Cl][Rh][Cl] (configuration not stated)
inactive: dose: 1.5 mg/kg/injection, schedule: Q01DX009 (ip), vehicle: gum acacia 98 % of control | dose: 3.0 mg/kg/injection, schedule: Q01DX009 (ip), vehicle: gum acacia 96 % of control | dose: 6.0 mg/kg/injection, schedule: Q01DX009 (ip), vehicle: gum acacia 100 % of control | dose: 12.5 mg/kg/injection, schedule: Q04DX003 (ip), vehicle: gum acacia 100 % of control | dose: 25.0 mg/kg/injection, schedule: Q04DX003 (ip), vehicle: gum acacia 93 % of control

O=C(O)Cn1cc(Cl)cc(Cl)c1=O
inactive: [9] 107 % of control | [10] 107 % of control | [11] 96 % of control

CCCC[S][Pb]([CH2]C)([CH2]C)[CH2]C
inactive: dose: 1.56 mg/kg/injection, schedule: Q01DX009 (sc), vehicle: olive oil, sesame oil, peanut oil 103 % of control | dose: 3.12 mg/kg/injection, schedule: Q01DX009 (sc), vehicle: olive oil, sesame oil, peanut oil 99 % of control | dose: 6.25 mg/kg/injection, schedule: Q01DX009 (sc), vehicle: olive oil, sesame oil, peanut oil 96 % of control and 100 % of control | dose: 12.5 mg/kg/injection, schedule: Q04DX002 (ip), vehicle: saline with Tween-80 111 % of control | dose: 25.0 mg/kg/injection, schedule: Q04DX002 (ip), vehicle: saline with Tween-80 96 % of control

O=C(CCC1CCCC1)c1ccccc1
inactive: dose: 12.5 mg/kg/injection, schedule: Q04DX002 (ip), vehicle: saline 100 % of control | dose: 25.0 mg/kg/injection, schedule: Q04DX002 (ip), vehicle: saline 98 % of control | dose: 50.0 mg/kg/injection, schedule: Q04DX002 (ip), vehicle: saline 98 % of control | [12] 98 % of control | [13] 98 % of control | [14] 91 % of control

O=c1oc2c(CN3CCCC3)c(O)ccc2c2c1CCCC2
inactive: dose: 100.0 mg/kg/injection, schedule: Q01DX001 (ip), vehicle: carboxymethylcellulose (CMC) 91 % of control | dose: 200.0 mg/kg/injection, schedule: Q01DX001 (ip), vehicle: carboxymethylcellulose (CMC) 98 % of control

NC(=O)c1cncc(C(N)=O)c1
inactive: [12] 103 % of control | [13] 95 % of control | [14] 100 % of control

NNC(=O)CC(=O)NN
inactive: dose: 50.0 mg/kg/injection, schedule: Q01DX001 (ip), vehicle: saline 97 % of control | [1] 106 % of control | [4] 110 % of control | [2] 97 % of control | [5] 111 % of control | [3] 97 % of control

Cc1cc([N+](=O)[O-])ccc1S(N)(=O)=O
inactive: dose: 100.0 mg/kg/injection, schedule: Q04DX003 (ip), vehicle: Klucel (hydroxypropylcellulose) (HPC) 105 % of control | dose: 200.0 mg/kg/injection, schedule: Q04DX003 (ip), vehicle: Klucel (hydroxypropylcellulose) (HPC) 105 % of control | dose: 400.0 mg/kg/injection, schedule: Q04DX003 (ip), vehicle: Klucel (hydroxypropylcellulose) (HPC) 109 % of control

O=C(NO)c1cc(=O)[nH]o1
inactive: [15] 95 % of control | [16] 95 % of control | [17] 95 % of control

COc1ccc2ccccc2n1
inactive: dose: 100.0 mg/kg/injection, schedule: Q01DX001 (ip), vehicle: Klucel (hydroxypropylcellulose) (HPC) 94 % of control | [6] 103 % of control | [15] 103 % of control | dose: 200.0 mg/kg/injection, schedule: Q01DX001 (ip), vehicle: Klucel (hydroxypropylcellulose) (HPC) 102 % of control | [7] 90 % of control | [16] 98 % of control | dose: 400.0 mg/kg/injection, schedule: Q01DX001 (ip), vehicle: Klucel (hydroxypropylcellulose) (HPC) 105 % of control

CN1C(=O)CSC1=S
inactive: dose: 25.0 mg/kg/injection, schedule: Q01DX009 (ip), vehicle: Klucel (hydroxypropylcellulose) (HPC) 90 % of control | dose: 50.0 mg/kg/injection, schedule: Q01DX009 (ip), vehicle: Klucel (hydroxypropylcellulose) (HPC) 87 % of control | dose: 100.0 mg/kg/injection, schedule: Q01DX009 (ip), vehicle: Klucel (hydroxypropylcellulose) (HPC) 93 % of control

c1ccc2c(c1)ccc1cc3cccc[n+]3cc12
inactive: dose: 0.31 mg/kg/injection, schedule: Q01DX009 (ip), vehicle: saline 98 % of control | dose: 0.62 mg/kg/injection, schedule: Q01DX009 (ip), vehicle: saline 98 % of control | dose: 1.25 mg/kg/injection, schedule: Q01DX009 (ip), vehicle: saline 101 % of control and 104 % of control | dose: 5.0 mg/kg/injection, schedule: Q04DX003 (ip), vehicle: saline 102 % of control | dose: 10.0 mg/kg/injection, schedule: Q04DX003 (ip), vehicle: saline 96 % of control

FC(F)(F)C(Cl)(Cc1ccc2ccccc2n1)C(F)(F)F
inactive: dose: 50.0 mg/kg/injection, schedule: Q04DX003 (ip), vehicle: saline with Tween-80 102 % of control | [6] 105 % of control | [15] 101 % of control | [7] 100 % of control | [16] 102 % of control | [8] 103 % of control | [17] 94 % of control

CCOC(=O)Nc1c(O)cccc1N1CCOCC1
inactive: [9] 101 % of control | [10] 101 % of control | [11] 104 % of control

O=C1NC(=O)N(c2ccc(Cl)cc2)C1=O
inactive: dose: 100.0 mg/kg/injection, schedule: Q04DX002 (ip), vehicle: saline with Tween-80 111 % of control | dose: 200.0 mg/kg/injection, schedule: Q04DX002 (ip), vehicle: saline with Tween-80 90 % of control

Nc1ccc(Nc2ccccc2)c(N)c1
inactive: dose: 50.0 mg/kg/injection, schedule: Q01DX009 (ip), vehicle: saline 98 % of control | dose: 75.0 mg/kg/injection, schedule: Q01DX009 (ip), vehicle: saline 102 % of control | dose: 75.0 mg/kg/injection, schedule: Q04DX003 (ip), vehicle: saline 103 % of control | dose: 150.0 mg/kg/injection, schedule: Q04DX003 (ip), vehicle: saline 96 % of control
